From US6900223B2, “Dihydrodipyrazolopyridinone inhibitors of B7-1” (Wyeth, priority 2002, dated 2005) come the findings set out here.

The IC50 is the concentration at which inhibition is half-maximal. The low end stands for greater potency, the high end for weaker potency.

The target of the assay is T1, B7-1/CD28 binding (Homo sapiens, UniProt P33681).
T1 sequence (P33681 35-242 limits assumed): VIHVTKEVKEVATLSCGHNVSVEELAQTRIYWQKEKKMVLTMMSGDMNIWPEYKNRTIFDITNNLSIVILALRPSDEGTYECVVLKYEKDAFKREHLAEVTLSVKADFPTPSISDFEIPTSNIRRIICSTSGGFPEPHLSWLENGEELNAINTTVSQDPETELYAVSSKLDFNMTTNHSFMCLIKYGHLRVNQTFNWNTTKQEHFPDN
Put plainly: CD28/B7-1 ELISA (B7-1/CD28 binding inhibition). Conditions: CD28-Fc coated wells, B7-1-Fc-biotin/streptavidin-alkaline phosphatase detection complex, 1% DMSO. As for the experimental part:
Evaluation of B7-1/CD28 Binding Inhibition for Test Compounds
Wells are coated with 300 ng CD28-Fc in carbonate buffer (pH 9.4) overnight at 4° C., blocked with 1% bovine serum albumin in tris-buffered saline (TBS) for 1 h at 22° C. and washed 3 times in TBS prior to assay. The detection complex is formed as follows: B7-1-Fc-biotin, prepared using NHS-LC-biotin (Pierce #21335) according to the manufacturers instructions (4.1 moles biotin/mole Fc), is added at 0.8 ug/ml to streptavidin-alkaline phosphatase (Caltag Sa1008 at 1:1000 in TBS. Gradient dilutions of test compound in dimethylsulfoxide (1% final) are added to this complex and incubated 30 min. at 22° C. Detection complex (+/−inhibitors) is then added to the CD28 coated wells for 25 min. at 22° C., washed 5 times with TBS, developed with the calorimetric substrate pNPP (Pierce #34045) in diethanolamine/MgCl2 buffer (pH 9.5) and read at 405 nm. The inhibition constant (IC50) is calculated by subtracting background binding and comparing to uninhibited (DMSO alone) controls. The inhibition constant represents the concentration of test compound required to achieve 50% inhibition.
In turn, `COc1cccc(-c2nc3c(cnn3C)c3[nH]n(-c4cccc(F)c4)c(=O)c23)c1` [Example 75] returned a concentration for half-maximal inhibition (IC50) of 82 nM. For `Cn1ncc2c3[nH]n(-c4cccc(F)c4)c(=O)c3c(-c3ccc4c(c3)OCO4)nc21` [Example 76] the value was 295 nM; for `CC1CN(c2nc3c(cnn3C)c3[nH]n(-c4cccc(F)c4)c(=O)c23)CC(C)O1` (stereo not drawn) [Example 81, 4-(2,6-Dimethyl-4-morpholinyl)-2-(3-fluorophenyl)-6-methyl-1,6-dihydrodipyrazolo[3,4-b:3′-4′-d]pyridin-3(2H)-one], 188 nM.
